Data as given in patent US20230113944A1, “COMPOSITIONS AND METHODS FOR THE TREATMENT OF NEURODEGENERATIVE DISEASES” (priority 2020, published 2023).
Several values for one entry are separate records, joined by “and”; a condition that tells them apart may be missing. Equal entries are not always repeated. Entries after “also recorded” stand apart in the source; their conditions may differ.

How the values were obtained:
[1] = system: donor cells (tau biosensor cells); assay: Donor cell number and viability in EMT assay; assay type: cell-based; settings: 48 hours after sub-culture, 20 μM, vs DMSO
Protocol: HEK293T Tau RD P301S FRET biosensor (tau biosensor) cells were grown in Dulbecco's Modified Eagle's medium (DMEM) with high glucose, 10% FBS, and 1% Penicillin-streptomycin at 37° C./5% CO2. The lead inhibitors were tested in functional tau propagation “D+R” (Donors plus Recipients) and EMT (EV-mediated transfer) assays using the tau biosensors. Briefly, tau aggregation in donor cells (D) was induced by transfection of tau biosensor cells with human AD brain derived synaptosomal extracts (35 μg of synaptosomal fraction for 5 million cells in one 10 cm dish); control cells were treated with corresponding amount of transfection reagent lipofectamine 2000. After 24 hr incubation, the cells were trypsinized and plated together with DID-labeled recipient cells (R) in a 1:1 ratio in 96-well plates (15,000 of each cell type per well) for D+R assay or 1.5 million of donor cells per well in 6-well plates for EMT assay. Tested compounds or a corresponding amount of DMSO (0.2%) was added to the cell culture medium, DMEM, which contained 10% of exosome-depleted FBS (ThermoFisher, A2720803). […] Tau seed transfer from donor to recipient cells results in FRET signal generation in the DID-positive recipient cells, which was measured by flow cytometry. Integrated FRET density was calculated in the top 30% of DID-positive cell based on DID signal intensity.

[2] = system: Tau P301S (PS19 line) tauopathy mouse model; assay: Rapid in vivo assay: IL1β-induced brain EV release; set-up: species or system mice
[3] = Parallel artificial membrane permeability (IAM column) prediction of CNS permeability; assay type: in vitro ADME; settings: PAMPA, 2 mM
Protocol: To predict the potential for brain permeability, a Regis Technologies analytical column connected to an Agilent HPLC system (Infinity 1260 quaternary pump and multiple wavelength detector; 1200 autosampler) was used. An IAM.PC.DD column was (4.6 mm i.d.×10 cm, particle size 5 μm; pore size 300 Å) conditioned with 20 column volumes of mobile phase or until a stable line was achieved. A mobile phase with a consistent flow rate of 1 mL/min was used comprising 100 mM Na2PO4 (solvent A) and acetonitrile (solvent B); compounds were eluted using a gradient (min/% B: 0/30, 10/60, 11/30, 15/30). Detector settings were 220, 250 and 280 nm and acquisition time was 15 min. The autosampler injected 10 μL of compound at 2 mM final, diluted from 10 mM in DMSO in 70:30 (water:acetonitrile). After elution, compound retention and void volume times were obtained from the chromatogram. The IAM capacity factor: (KIAM) was calculated using the equation: […]
where tr is the retention time of a compound and t0 is the void volume time of the column. To predict CNS permeability, we used the correlation described by the formula below.

[4] = Brain pharmacokinetic analysis after SQ dosing
Protocol: Pharmacokinetic (PK) analysis on the leads 8 and 11 to determine brain permeability using wild type mice was performed. The compounds were subcutaneously (SQ) injected at a dose of 20 mg per kg of body weight (mpk). Brain and plasma samples were collected 1, 2, and 4 hours after dosing.

[5] = system: HEK293T Tau RD P301S FRET biosensor (tau biosensor) cells; assay: Donor plus Recipient (D+R) tau propagation assay; assay type: cell-based; settings: 20 μM
Protocol: HEK293T Tau RD P301S FRET biosensor (tau biosensor) cells were grown in Dulbecco's Modified Eagle's medium (DMEM) with high glucose, 10% FBS, and 1% Penicillin-streptomycin at 37° C./5% CO2. The lead inhibitors were tested in functional tau propagation “D+R” (Donors plus Recipients) and EMT (EV-mediated transfer) assays using the tau biosensors. Briefly, tau aggregation in donor cells (D) was induced by transfection of tau biosensor cells with human AD brain derived synaptosomal extracts (35 μg of synaptosomal fraction for 5 million cells in one 10 cm dish); control cells were treated with corresponding amount of transfection reagent lipofectamine 2000. After 24 hr incubation, the cells were trypsinized and plated together with DID-labeled recipient cells (R) in a 1:1 ratio in 96-well plates (15,000 of each cell type per well) for D+R assay or 1.5 million of donor cells per well in 6-well plates for EMT assay. Tested compounds or a corresponding amount of DMSO (0.2%) was added to the cell culture medium, DMEM, which contained 10% of exosome-depleted FBS (ThermoFisher, A2720803). Four technical replicates were used for each experimental condition. The inhibitors were tested at 20 μM concentration. […] Tau seed transfer from donor to recipient cells results in FRET signal generation in the DID-positive recipient cells, which was measured by flow cytometry. Integrated FRET density was calculated in the top 30% of DID-positive cell based on DID signal intensity.
(§1) An Attune NxT Flow Cytometer (Invitrogen) equipped with an autosampler and FRET-compatible laser lines and filter sets was used for FRET signal detection. The FRET (CFP/YFP) signal was excited by a 405 nm laser for CFP excitation and detected in the YFP image detection channel. Flow cytometry data was analyzed using FCS Express version 5 software (DeNovo Software California, USA). Integrated FRET density was calculated as a product of percentage FRET positive cells and median of fluorescent intensity of the FRET positive cells as previously established.

[6] = biological target: human serum albumin (HSA) (Homo sapiens, UniProt P02768); assay: Binding to human serum albumin (HSA)
human serum albumin (HSA), sequence (P02768 25-609): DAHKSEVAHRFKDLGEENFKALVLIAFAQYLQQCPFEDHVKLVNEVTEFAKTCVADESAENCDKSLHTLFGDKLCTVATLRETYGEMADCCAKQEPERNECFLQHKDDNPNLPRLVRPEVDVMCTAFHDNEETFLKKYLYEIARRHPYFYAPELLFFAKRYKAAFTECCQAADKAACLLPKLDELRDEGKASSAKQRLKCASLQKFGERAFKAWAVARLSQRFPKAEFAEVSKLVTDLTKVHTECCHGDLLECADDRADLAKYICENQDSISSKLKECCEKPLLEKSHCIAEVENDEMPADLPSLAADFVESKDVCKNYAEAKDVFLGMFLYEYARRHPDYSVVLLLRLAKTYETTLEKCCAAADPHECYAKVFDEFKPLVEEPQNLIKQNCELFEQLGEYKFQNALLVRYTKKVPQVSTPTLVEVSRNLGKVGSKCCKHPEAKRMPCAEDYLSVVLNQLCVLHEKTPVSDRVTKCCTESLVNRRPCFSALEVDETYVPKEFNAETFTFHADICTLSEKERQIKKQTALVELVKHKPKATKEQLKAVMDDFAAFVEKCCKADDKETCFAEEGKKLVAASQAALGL

Human AChE = biological target: T1, Human AChE (Homo sapiens, UniProt P22303); assay: biochemical; settings: read-out: AChE IC50
T1 construct: purchased Sigma
T1 sequence (P22303 32-614): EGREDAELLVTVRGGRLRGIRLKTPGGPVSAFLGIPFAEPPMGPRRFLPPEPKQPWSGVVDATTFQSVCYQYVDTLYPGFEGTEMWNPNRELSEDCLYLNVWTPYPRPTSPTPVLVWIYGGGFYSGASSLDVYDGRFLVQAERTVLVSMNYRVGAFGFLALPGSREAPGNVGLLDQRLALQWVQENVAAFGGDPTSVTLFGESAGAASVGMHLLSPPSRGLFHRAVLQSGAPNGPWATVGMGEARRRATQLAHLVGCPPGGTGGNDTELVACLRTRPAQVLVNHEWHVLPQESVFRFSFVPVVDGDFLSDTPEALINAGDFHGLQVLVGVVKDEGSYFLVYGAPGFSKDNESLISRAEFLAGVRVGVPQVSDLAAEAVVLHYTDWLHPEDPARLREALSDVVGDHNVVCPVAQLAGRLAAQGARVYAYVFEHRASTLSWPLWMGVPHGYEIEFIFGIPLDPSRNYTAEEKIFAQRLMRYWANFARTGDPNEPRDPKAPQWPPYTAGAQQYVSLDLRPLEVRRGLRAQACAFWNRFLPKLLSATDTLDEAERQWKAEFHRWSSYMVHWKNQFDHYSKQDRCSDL
Protocol: This acetylcholinesterase (AChE) assay is based on an Amplex Red assay kit (Thermo Fisher A12217). Human AChE (Sigma) was used. Briefly, 5 μL of compounds at the desired concentration were loaded into wells of a 384-well plate. Then, 5 μl of human AChE (30 mU/mL) was loaded into each well, followed by the addition of 10 μL of the working solution which contains 400 μM Amplex Red reagent, 2 U/mL HRP, 0.2 U/mL choline oxidase, and 100 μM acetylcholine. The reaction was monitored for 60 minutes and read at 530/590 nm. AChE IC50 was determined by plotting AChE activity as a percentage of DMSO control using GraphPad Prism software.

[7] = system: HEK293T Tau RD P301S FRET biosensor (tau biosensor) cells; assay: EV-mediated tau seed transfer (EMT) assay; assay type: cell-based; settings: 20 μM
[8] = system: HEK293T Tau RD P301S FRET biosensor (tau biosensor) cells; assay: EV-mediated tau seed transfer (EMT) assay; assay type: cell-based; settings: 20 μM; remark: listed apart in the source
Protocol: HEK293T Tau RD P301S FRET biosensor (tau biosensor) cells were grown in Dulbecco's Modified Eagle's medium (DMEM) with high glucose, 10% FBS, and 1% Penicillin-streptomycin at 37° C./5% CO2. The lead inhibitors were tested in functional tau propagation “D+R” (Donors plus Recipients) and EMT (EV-mediated transfer) assays using the tau biosensors. Briefly, tau aggregation in donor cells (D) was induced by transfection of tau biosensor cells with human AD brain derived synaptosomal extracts (35 μg of synaptosomal fraction for 5 million cells in one 10 cm dish); control cells were treated with corresponding amount of transfection reagent lipofectamine 2000. After 24 hr incubation, the cells were trypsinized and plated together with DID-labeled recipient cells (R) in a 1:1 ratio in 96-well plates (15,000 of each cell type per well) for D+R assay or 1.5 million of donor cells per well in 6-well plates for EMT assay. Tested compounds or a corresponding amount of DMSO (0.2%) was added to the cell culture medium, DMEM, which contained 10% of exosome-depleted FBS (ThermoFisher, A2720803). Four technical replicates were used for each experimental condition. The inhibitors were tested at 20 μM concentration. In 48 hours 50 μL of culture medium per well were collected for cell viability test (Cytotox 96 non-radioactive cytotoxicity assay, Promega Corp., Madison, Wis.). The cells in D+R assay were harvested at the 48 hr time point and fixed with 2% paraformaldehyde for flow cytometry analysis according to published protocol. Tau seed transfer from donor to recipient cells results in FRET signal generation in the DID-positive recipient cells, which was measured by flow cytometry. Integrated FRET density was calculated in the top 30% of DID-positive cell based on DID signal intensity.
For the EMT assay, cell culture medium from donor cells growing for 48 hours with the compounds at concentrations of 20 μM or a corresponding amount of DMSO (0.2%), was collected and EVs were purified using the ExoQuick-TC kit (SBI biosciences) according to the manufacturer's instructions. Naïve recipient cells were plated in 96 well plates at a density of 20,000 cells per well in exosome-free medium and transfected with donor cell-derived exosomes at 12 hrs. The recipient cells were harvested 60 hours after transfection and FRET signals were analyzed using flow cytometry.
as §1, with “The FRET (CFP/YFP) signal was excited by a 405 nm laser for CFP excitation and detected in the YFP image detection channel.” left out

CN1c2ccc(OC(=O)Nc3cccnc3)cc2[C@]2(C)CCO[C@H]12 [Compound 11]
donor cell numbers or survival [1]: didn't affect | IL1β-induced tau release by exosomes ([2]; 20 mg/kg SQ): significantly reduced | difference in CD11b levels (microglia-derived exosomes) vs IL1β group ([2]; 20 mg/kg SQ): not significant | exosome-associated BIN1 upon IL1β stimulation ([2]; 20 mg/kg SQ): lower | level of astrocyte-derived exosomes (GLAST) ([2]; 20 mg/kg SQ, vs IL1β group): significantly reduced | exosomal marker CD63 in exosome-enriched F2 fractions ([2]; 20 mg/kg SQ, vs IL1β only group): significant reduction | IL1β-induced brain EV / exosomal release (small EV concentration, TRPS) ([2]; mouse, in vivo, 20 mg/kg): diminished IL1β-induced brain EV release; also recorded: suppressed IL1β-induced exosomal release to the control level | CNS perm (PAMPA) [3]: 1.8 | brain penetration (compound levels in brain tissue, LC-MS/MS) ([4]; mice, 20 mg/kg SQ): penetrated the brain | concentration at 1 h ([4]; mouse, in vivo, 20 mg/kg): 262 ng/g and ~800 nM | time of peak brain levels after SQ dosing ([4]; wild type mice, 20 mg/kg SQ): around one | decrease of FRET fluorescence density from DMSO-control, D+R assay [5]: 19.5% | tau seed transfer from donor to recipient cells, D+R assay ([5]; 48 hrs): suppress tau propagation; also recorded: significantly suppresses | degree of binding to human serum albumin (HSA) [6]: low degree of binding | fraction unbound ([6]; human, human serum albumin): 0.31 | IC50 (Human AChE): 1.7 µM | EV size distribution of donor-derived EVs (TRPS) [7]: did not affect | concentrations of exosomal-type small EVs from donor cells [7]: decreased | levels of exosomal markers CD63, CD81, and syntenin-1 in donor EVs ([7]; vs DMSO control): reduced | decrease of FRET fluorescence density from DMSO-control, EMT assay [8]: 41.3% | tau seed transfer from donor to recipient cells, EMT assay ([8]; donor cells 48 hrs): suppress tau propagation; also recorded: significantly suppresses
